In US8633314B2, “Forms of a multicyclic compound” (Cephalon, Inc., priority 2009, dated 2014):

Columns and labels:
Type in all cases: physicochemical
[1] = Solid state stress stability (storage; XRPD and stability-indicating HPLC)
Method: Typically 10 μL aliquots of the sample solutions were diluted to 1 mL with acetonitrile and the assay concentrations were determined from an average of duplicate injections using the following HPLC method. The purity and impurity analyses are done using conventional HPLC.
Crystallization studies were performed to investigate polymorphism in 48 different solvents. Solvents were selected on the basis of acceptability (ICH Class 3 and 2) and to give a range of dielectric constants, dipole moments and functional groups. Two starting materials were selected: Form A0 and Lot 7 (a mixture of Form A0, Form HC0 and Form HD0). When possible, full characterization was performed on the new forms that were generated during the polymorphism screening of Compound I. This characterization consisted of: XRPD, thermal analysis, DVS, storage at 40° C./75% RH and purity.
Stress stability studies were performed to get a timely impression of the influence of temperature and humidity on form stability. A stability-indicating HPLC assay method was developed for quantitation of Compound I and its major degradation product, 7-methoxy-1,2,3,11-tetrahydro-5,11-diaza-benzo[a]trindene-4,6-dione, previously referred to as “Compound E”.

[2] = Dynamic vapor sorption (DVS)
Method: Gravimetric vapor sorption experiments were carried out using the DVS-HT instrument (Surface Measurement Systems, London, UK). This instrument measures the uptake and loss of vapor gravimetrically using a recording ultra-microbalance with a mass resolution of ±0.1 μg. The vapor partial pressure (±1.0%) around the sample was controlled by mixing saturated and dry carrier gas streams using electronic mass flow controllers. The desired temperature was maintained at ±0.1° C.
The samples (10-25 mg) were placed into the DVS-HT instrument at the desired temperature. Two types of dynamic vapor sorption experiments were performed: • 1. The sample was initially dried in stream of dry air (<0.1% relative humidity (RH)) for 20 hours to establish a dry mass and exposed to two 0-90% RH cycles (in 10% RH increments). • 2. The sample was exposed at 90% RH for 20 hours and exposed to two 90-0% RH cycles (in 10% RH increments). Infrared Spectrometry (FTIR)

[3] = Well plate crystallization with added water (forms found)
Method: B. Plates containing 10 volumes of Compound I (40 mg of Lot 7 in 400 μL) were heated from 20° C. to an initial temperature of 80° C. at a rate of 4.8° C./min and after 30 minutes, cooled at a slow (0.28° C./min), or fast (10° C./min) rate to a final temperature of 5° C. and kept at that temperature for 18 hours. The crystallization experiments were carried out in glass vial (4 mL) well plates, and solid material was isolated by filtration. The solid was dried at 57° C. for 10 hours.

[4] = Relative stability of slurries in water (XRPD of residual solid); conditions: for form after slurrying in water: slurried overnight in 2 ml water, all conditions investigated; for Forms Found (XRPD of residual solid): water
Method: Two ml of water was added to a few milligrams of Compound I forms. The samples were slurried overnight. A small sample of solid was removed and analyzed by XRPD. […] The hydrate form appears to be more thermodynamically stable than Form A0 between 5 and 45° C.

[5] = Variable temperature X-ray powder diffraction (VT-XRPD)
Method: Variable temperature studies were performed under a nitrogen atmosphere with an Anton Paar TTK450 temperature chamber under computer control through an Anton Paar TCU100 temperature control unit. Two measurement schemes were used, restricted and continuous. In the restricted mode, measurements were made, only after the TK450 chamber reached the requested temperature. In the continuous mode, the sample was heated at 10° C./minute and fast scans were measured as the temperature changed. After the requested temperature was reached, the sample was cooled at 30 or 35° C./minute and a slower scan measured 25° C.

[6] = Mechanical stress: grinding by mortar and pestle, milling by Wig-L-Bug
Method: Approximately 100 mg of Compound I was ground at different times ranging from 5 to 27 min in an agate mortar. Samples were removed for XRPD and thermal analysis. The grinding process was stopped every 5 minutes to scrape and remix powder cakes at the curvature end of the jars to ensure homogenous grinding.
A Wig-l-Bug® (Piketech, USA) was used to grind Compound I Form A0, HA0 and HB0 (mixture of Forms HC0 and HD0). Each sample (50 mg) was ground for periods of 5 and 10 minutes or until no change was observed. Each milling was carried out in a 2.82 cm^3 container using 0.9 g stainless steel ball ([…]). The vial is swung through a 6.5° arc at 3200 rpm, causing the ball to strike the end of the vial at over 100 Hz.

[7] = Regular DVS (0 to 90% RH), listed as HC0
[8] = Irregular DVS (90 to 0% RH), listed as A0
[9] = Regular DVS (0 to 90% RH), listed as A0

COc1cccc2[nH]c3c4c(c5c(c3c12)C(=O)N(CN1CCN(C)CC1)C5=O)CCC4 [Form S40]
HPLC % Compound I ([1]; 40° C./75% RH, 9 days): 99.4% Compound I, | XRPD (form found) ([1]; 40° C./75% RH, 9 days): transformed into monohydrate Form HC0 | XRPD (form found) ([1]; 40° C./75% RH, 9 days, listed as S40): HC0 | HPLC % Compound I ([1]; 40° C./75% RH, 17 days): 99.4% Compound I, | XRPD (form found) ([1]; 40° C./75% RH, 17 days): HC0 | HPLC % Compound I ([1]; 40° C./75% RH, 31 days): 99.4% Compound I, | XRPD (form found) ([1]; 40° C./75% RH, 31 days): HC0 | HPLC % Compound I ([1]; 40° C./75% RH, 62 days): 99.2% Compound I, | XRPD (form found) ([1]; 40° C./75% RH, 62 days): remained in this state | XRPD (form found) ([1]; 40° C./75% RH, 62 days, listed as S40): HC0

COc1cccc2[nH]c3c4c(c5c(c3c12)C(=O)N(CN1CCN(C)CC1)C5=O)CCC4 [Form HA0, 4,5,6,7-tetrahydro-11-methoxy-2-[(4-methyl-1-piperazinyl)methyl]-1H-cyclopenta[a]pyrrolo[3,4-c]carbazole-1,3(2H)-dione]
XRPD post DVS analysis [2]: No significant changes | DVS % increase in mass at 90% RH [2]: 1.5% | weight decrease in DVS isotherm ([2]; between 20-30% RH): 1.25% | second change in mass ([2]; second desorption phase): ~0.4% | form produced on crystallization from aqueous media [3]: a mixture of Forms HC0+HD0 is produced | Forms Found ([3]; solvent not given, 0.175 volumes of water): HC0, HD0 | Chemical Stability (HPLC (post 4 weeks at 40° C./75% RH (Area %))) ([1]; 40° C./75% RH): 99.0 Area % | HPLC % Compound I ([1]; 40° C./75% RH, 0 days): 99.6% Compound I, | XRPD (form found) ([1]; 40° C./75% RH, 0 days): HA0 | HPLC % Compound I ([1]; 40° C./75% RH, 7 days): 99.5% Compound I, | XRPD (form found) ([1]; 40° C./75% RH, 7 days): HA0 | HPLC % Compound I ([1]; 40° C./75% RH, 26 days): 99.0% Compound I, | XRPD (form found) ([1]; 40° C./75% RH, 26 days): HA0 | form after slurrying in water [4]: converted to the hydrate forms (mixture of Forms HC0 and HD0)

COc1cccc2[nH]c3c4c(c5c(c3c12)C(=O)N(CN1CCN(C)CC1)C5=O)CCC4 [Compound I, 4,5,6,7-tetrahydro-11-methoxy-2-[(4-methyl-1-piperazinyl)methyl]-1H-cyclopenta[a]pyrrolo[3,4-c]carbazole-1,3(2H)-dione]
chemical degradation ([1]; 40° C. and 75% RH): not observed | chemical degradation ([1]; exposed to 110° C.): observed

COc1cccc2[nH]c3c4c(c5c(c3c12)C(=O)N(CN1CCN(C)CC1)C5=O)CCC4 [Form B0, 4,5,6,7-tetrahydro-11-methoxy-2-[(4-methyl-1-piperazinyl)methyl]-1H-cyclopenta[a]pyrrolo[3,4-c]carbazole-1,3(2H)-dione]
solid-solid transformation (VT-XRPD) ([5]; 150° C. to 200° C., after the dehydration): no solid-solid transformation takes place

COc1cccc2[nH]c3c4c(c5c(c3c12)C(=O)N(CN1CCN(C)CC1)C5=O)CCC4 [Form HB0]
factor of reduction in intensity of XRPD peak at 7.6° (2θ) ([6]; three five-minute grinding intervals): approximately 30

COc1cccc2[nH]c3c4c(c5c(c3c12)C(=O)N(CN1CCN(C)CC1)C5=O)CCC4 [Form HC0, 4,5,6,7-tetrahydro-11-methoxy-2-[(4-methyl-1-piperazinyl)methyl]-1H-cyclopenta[a]pyrrolo[3,4-c]carbazole-1,3(2H)-dione]
DVS % increase in mass at 90% RH [2]: 0.44% | At 75% RH uptake ([2]; Irregular DVS (90 to 0% RH)): 0.3% | Total uptake at 90% RH ([2]; Irregular DVS (90 to 0% RH)): 0.4% | changes by XRPD re-analysis after DVS ([2]; Irregular DVS (90 to 0% RH)): No significant changes | Total uptake at 90% RH ([2]; Regular DVS (0 to 90% RH)): 0.4% | changes by XRPD re-analysis after DVS ([2]; Regular DVS (0 to 90% RH)): No significant changes | At 75% RH uptake [2, 7]: 0.3% | Total uptake at 90% RH [2, 7]: 0.4% | Chemical Stability (HPLC (post 4 weeks at 40° C./75% RH (Area %))) ([1]; 40° C./75% RH): 99.0 Area % | HPLC % Compound I ([1]; 40° C./75% RH, 0 days): 92.6% Compound I, | XRPD (form found) ([1]; 40° C./75% RH, 0 days): HC0 | HPLC % Compound I ([1]; 40° C./75% RH, 28 days): 93.3% Compound I, | HPLC % others ([1]; 40° C./75% RH, 28 days): 0.2% others | XRPD (form found) ([1]; 40° C./75% RH, 28 days): HC0

COc1cccc2[nH]c3c4c(c5c(c3c12)C(=O)N(CN1CCN(C)CC1)C5=O)CCC4 [Form A0, 4,5,6,7-tetrahydro-11-methoxy-2-[(4-methyl-1-piperazinyl)methyl]-1H-cyclopenta[a]pyrrolo[3,4-c]carbazole-1,3(2H)-dione]
DVS % increase in mass at 90% RH [2]: 0.1% | Total uptake at 90% RH ([2]; Irregular DVS (90 to 0% RH)): 0.5% | changes by XRPD re-analysis after DVS ([2]; Irregular DVS (90 to 0% RH)): No significant changes | total increase in mass (reversible isotherm) ([2]; Irregular DVS (90 to 0% RH)): < 0.6% | At 75% RH uptake [2, 8]: 0.15% | Total uptake at 90% RH [2, 8]: 0.5% | At 75% RH uptake ([2]; Regular DVS (0 to 90% RH)): less than 0.08% | Total uptake at 90% RH ([2]; Regular DVS (0 to 90% RH)): approximately 0.1% | changes by XRPD re-analysis after DVS ([2]; Regular DVS (0 to 90% RH)): No significant changes | hygroscopicity ([2]; Regular DVS (0 to 90% RH), adsorption and desorption curves overlap): not hygroscopic | At 75% RH uptake [2, 9]: 0.08% | Total uptake at 90% RH [2, 9]: 0.1% | XRPD crystallinity after milling ([6]; five minutes, Wig-l-Bug): crystallinity had been significantly reduced | XRPD crystallinity after grinding ([6]; twenty minutes, mortar and pestle): crystallinity had been significantly reduced | solid-solid transformation (VT-XRPD) ([5]; 20° C. to 250° C.): No solid-solid transformation takes place | change in XRPD pattern after heating ([5]; heated to 220° C., then exposure to ambient conditions): no significant change | form produced on crystallization from aqueous media [3]: a mixture of Forms HC0+HD0 is produced | Forms Found ([3]; methyl acetate, 0.175 volumes of water): HC0, HD0 | Forms Found ([3]; methyl acetate, 0.25 volumes of water): HC0, HD0 | Forms Found ([3]; methyl acetate, 1 volume of water): HC0, HD0 | Forms Found ([3]; methyl acetate, 1.5 volumes of water): HC0, HD0 | Chemical Stability (HPLC (post 4 weeks at 40° C./75% RH (Area %))) ([1]; 40° C./75% RH): 99.0 Area % | forms arising on storage (water uptake) ([1]; 40° C. and 75% RH, after 3 months): hydrate Forms HC0 and HD0 | HPLC % Compound I ([1]; 40° C./75% RH, 5 days): 99.2% Compound I, | HPLC % Compound I ([1]; 40° C./75% RH, 16 days): 99.2% Compound I, | HPLC % Compound I ([1]; 40° C./75% RH, 29 days): 99.2% Compound I, | HPLC % Compound I ([1]; 40° C./75% RH, 141 days): 99.0% Compound I, | XRPD (form found) ([1]; 40° C./75% RH, 141 days): A0, HC0, HD0 | HPLC % Compound I ([1]; 60° C./0% RH, 7 days): 99.3% Compound I, | HPLC % Compound I ([1]; 60° C./0% RH, 14 days): 99.1% Compound I, | HPLC % Compound I ([1]; 60° C./0% RH, 28 days): 99.1% Compound I, | HPLC % Compound I ([1]; 110° C., 7 days): 98.7% Compound I, | HPLC % Compound I ([1]; 110° C., 14 days): 95.6% Compound I, | HPLC % Compound I ([1]; 110° C., 28 days): 93.4% Compound I, | form after slurrying in water [4]: converted to the hydrate forms (mixture of Forms HC0 and HD0) | Forms Found (XRPD of residual solid) ([4]; 5° C., 1 day): HC0, HD0 | Forms Found (XRPD of residual solid) ([4]; 5° C., 4 days): HC0, HD0 | Forms Found (XRPD of residual solid) ([4]; 45° C., 1 day): HA0, HC0
